Source: US9969744B2, “Compounds for use in cognition improvement” (FUNDACIÓN PARA LA INVESTIGACIÓN MÉDICA APLICADA, priority 2014, dated 2018)
Marks after values point to notes of the source that are not given here.

What was measured:
[1] = system: phosphorylated tau (p-Tau); test: AD-related markers in Tg2576 neurons: pTau; format: cell-based, mouse; conditions: Tg2576 primary neurons, compound concentration 50 nM
Procedure: The effects of the compounds on amyloid pathology were analysed in primary cultures after 21 days in-vitro (DIV) of neurons derived from the hippocampus and cortex of Tg2576 mouse embryos. Tg2576 mice express the human 695-aa isoform of APP (hAPP) containing the Swedish double mutation, which favours A3 production. Neurons were treated for two days and collected at day 3, 24 h after the last treatment. First it was analysed the effect of the compounds on hAPP processing by the amyloidogenic pathway by measuring the carboxyl terminal fragment AβPP (C99), which is the precursor of Aβ42. […]
It was next analyzed the effect of the compounds on levels of phosphorylated tau (p-Tau) in the same samples, another marker of AD, using a phospho-specific antibody (AT8) that recognizes hyperphosphorylated epitopes on Ser202/Thr205. […]
To analyze APP-derived fragments and p-Tau levels in primary neuronal cultures, cells were collected in a buffer containing SDS (2%), Tris-HCl (10 mM, pH 7.4), protease inhibitors (1 mM phenylmethylsulfonyl fluoride (PMSF) and Complete Protease Inhibitor Cocktail: Roche Diagnostics) and phosphatase inhibitors (0.1 mM Na3VO4 and 1 mM NaF). […] Aliquots of the supernatant were frozen at […] and their protein concentrations determined by the Bradford method using the Bio-Rad protein assay (Bio-Rad, Hercules, Calif., USA). […]

aged-Tg2576 mice [2] = test: Memory function in aged-Tg2576 mice: Fear Conditioning (FC); format: in vivo; conditions: Tg2576 mice (16-18 month), chronic treatment 3-5 weeks, 20 mg/Kg i.p.; standard error in brackets
Procedure: (§1) The effect on memory function of compounds of the invention was studied in Tg2576 mice (16-18 month) after a chronic treatment of 3-5 weeks by using two different behavioral tasks: the Fear Conditioning (FC) and the Morris water maze (MWM) test, Table 5 (below)
The behavioural procedure of FC task involved three phases: habituation, training and testing. During habituation phase, mice were habituated to the conditioning box (context) for 5 min with no stimuli presented. 24 hours later (training phase), mice were placed in the training chamber and allowed to explore for 2 min, afterward, a footshock (0.3 mA) unconditioned stimulus was administered (2 s) and 30 s after mice were returned to their home cage. Mice were returned to the conditioning chamber 24 h after training and allowed to explore the context for 2 min, during which freezing behavior was recorded (contextual long term memory). Freezing scores were expressed as percentages. The conditioning procedure was carried out in a StartFear system (Panlab S.L., Barcelona, Spain) that allows recording and analysis of the signal generated by the animal movement through a high sensitivity Weight Transducer system. The analogical signal is transmitted to the FREEZING and STARTLE software modulated through the load cell unit for recording purposes and posterior analysis in terms of activity/immobility.

aged-Tg2576 mice [3] = test: Memory function in aged-Tg2576 mice: Morris water maze (MWM); format: in vivo; conditions: Tg2576 mice (16-18 month), chronic treatment 3-5 weeks, 20 mg/Kg i.p.; retention phase, day 4th; standard error in brackets
Source text: as §1
The MWM test was used to evaluate spatial memory. After treatments, groups of animals underwent spatial reference learning and memory testing in the MWM. The water maze was a circular pool (diameter 1.2 m) filled with water maintained at 20° C. and made opaque by the addition of non-toxic white paint. Mice were trained for three consecutive days (8 trials/day) swimming to a raised platform (visible-platform). No distal visible cues were present during this phase. […] In the probe trials the platform was removed from the pool, and the percentage of time spent in the quadrant where the platform was previously set was recorded. All trials were monitored by a camera above the center of the pool connected to a SMART-LD program (Panlab S.L., Barcelona, Spain) for subsequent analysis of escape latencies, swimming speed, path length and percent time spent in each quadrant of the pool during probe trials. […]

pCREB = test: In-vivo pCREB in hippocampus of wild type mice; conditions: 1 h after single dose 40 mg/kg i.p.
Procedure: Another group of animals received the vehicle (1/1/8, v:v:v, DMSO/Tween 20/saline). One hour later, mice were sacrificed by cervical dislocation and their hippocampus was quickly dissected from the brains. Total tissue homogenates were obtained by homogenizing the hippocampus in a cold lysis buffer with protease inhibitors (0.2 M NaCl, 0.1 M HEPES, 10% glycerol, 200 mM NaF, 2 mM Na4P2O7, 5 mM EDTA, 1 mM EGTA, 2 mM DTT, 0.5 mM PMSF, 1 mM Na3VO4 and Complete Protease Inhibitor Cocktail, Roche Diagnostics). The homogenate was then centrifuged at 14,000×g at 4° C. for 20 min and the supernatant aliquoted and stored at −80° C. Total protein concentrations were determined using the BioRad Bradford protein assay (BioRad Laboratories). Protein samples were analyzed as described in the “in vitro” section.

CCCc1nn(C)c2c(=O)[nH]c(-c3cc(Cc4ccc(C(=O)Nc5ccccc5N)cc4)ccc3OCC)nc12 [Example 1-11, N-(2-aminophenyl)-4-[[4-ethoxy-3-(1-methyl-7-oxo-3-propyl-6H-pyrazolo[4,3-d]pyrimidin-5-yl)phenyl]methyl]benzamide]
decrease in pTau levels over basal [1]: ++ (basal x0.2≤(++)<basal x0.4 (reduction between 20% and 40%))
FC (% freezing) (aged-Tg2576 mice [2]): 59.65 (9.2)^c %
MWM (% of time on right quadrant) (aged-Tg2576 mice [3]): 33.83 (2.24)^c %
pCREB increment vs basal (pCREB): +++ (basal x2≤(+++)<basal x3)
